Experimental data reported in publication PMC11267363, “Supramolecular Nanofibers Ameliorate Bleomycin‐Induced Pulmonary Fibrosis by Restoring Autophagy” (Advanced Science, 2024).
Ends that are not written are not given here.

Legend:
[1] = test system: autophagic flux in activated MRC-5 cells; test: Autophagic flux (LC3-II:LC3-I, p62 western blot; mRFP-GFP-LC3 live-cell imaging); type: cell-based, human; details: TGF-β1 10 ng/mL, peptide 50 µM, 24 h
Description: According to the manufacturer's instructions, MRC-5 cells were infected with mRFP-GFP-LC3 adenoviral particles. After infection, the cells were cultured for another 24 h and seeded on a CLSM dish at a density of 5 × 10^4 cells. After adherence, the cells were treated with 0 or 10 ng mL^-1 TGF-β1 for 24 h. On the other hand, in order to detect whether peptide could regulate the autophagic flux, the stable infected MRC-5 cells were seeded on a CLSM dish at a density of 5 × 10^4 cells. After adherence, the cells were treated with saline, Ac-GFFY-A2 (50 μM) or A2 (50 μM) plus TGF-β1 (10 ng mL^-1) for 24 h. The cells solely treated by saline as control group. Discarding the medium and washing the cells with cold PBS buffer. The autophagic flux was detected by Live Cell Imaging Microscopy (Leica TCS SP5). page 18: […] -3' and [NT]. […] The autophagic flux was detected by Live Cell Imaging Microscopy (Leica TCS SP5). […] The protein concentration was measured using BCA Protein Assay Kit (Thermo Scientific). […] The protein transferred PVDF membranes were incubated with following primary antibodies at 4°C overnight: Then the membranes were incubated with horseradish peroxidase (HRP)-conjugated secondary antibodies at room temperature for 1 h, and protein signals were detected using an enhanced chemiluminescence kit (Pierce). […] The co -precipitates were resolved using SDS-PAGE and detected with immunoblotting. […]

[2] = test system: bleomycin-induced pulmonary fibrosis; test: Bleomycin model of pulmonary fibrosis, therapeutic treatment; type: in vivo, C57BL/6 mice; details: for survival rate: bleomycin 2 U kg−1 intratracheal, i.v. treatment from 7 days later, Ac-GFFY-A2 10 mg/kg, 21-day period, n = 16
Description: We further evaluated the anti‐fibrotic effect of Ac‐GFFY‐A2 peptide nanofibers in vivo. […] The observed reductions in fibrosis, collagen accumulation, and protein levels of Col 1 and α‐SMA strongly support the efficacy of Ac‐GFFY‐A2 in combating fibrotic processes, confirming that the peptide nanofibers as a TRB3/p62 PPIs modulator with a potent anti‐fibrotic activity.
C57BL/6 mice were intratracheally administered with bleomycin at a dose of 2 U kg^−1 body weight as previously described.^[ [11a] ^]
Hydroxyproline content of the right lung of each mouse was measured using a conventional hydroxyproline method as previously described.^[ [30] ^]
The left lungs cleared of blood were inflated with 10% neutral buffered formalin and fixed overnight. Then the tissues were embedded in paraffin and sectioned. The 5‐µm sections were stained with H&E and Masson trichrome according to the manufacturer`s instructions (Sigma–Aldrich). Immunohistochemistry was performed as previously described.^[ [30] ^] The antibodies specific for α‐SMA and Collagen I were used for staining.

With Ac-GFFYGGWLTRLLQTK-OH [Ac-GFFY-A2] the autophagic flux [1] was “restoration of autophagic flux”, the survival rate [2] was 68.75% and the “quantification of fibrotic left lung sections (lung fibrotic score)” value ([2]; bleomycin mice, i.v. treatment, H&E, compared to saline or A2) was “significant decrease in fibrosis”. For the same substance, the body weight ([2]; bleomycin mice, i.v. treatment, average body weight curve) was “partial recovery from the body weight loss” and the hydroxyproline content ([2]; bleomycin mice, i.v. treatment, bleomycin challenge alone ≈480) was “≈ 280 µg per right lung tissue”.
GGWLTRLLQTK-OH [A2, reference compound] was tested, and the autophagic flux [1] was “barely increased” and the survival rate [2] was 62.50%.
